Reference: patent publication US20160272617A1, “SUBSTITUTED PHENYLALANINE DERIVATIVES” (BAYER PHARMA AKTIENGESELLSCHAFT, priority 2013, published 2016)
Counter-ions that a name gives are not always drawn.

What was measured:
human factor XIa = target: T1, human factor XIa (Homo sapiens, UniProt P03951); assay: Measurement of FXIa inhibition (fluorogenic peptide substrate Boc-Glu(OBzl)-Ala-Arg-AMC); format: biochemical; details: factor XIa from Kordia, 15 min preincubation, 30 min at 22° C., fluorescence
T1 construct: purchased Kordia
Summary of the method: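 Released AMC fluorescence (360/460 nm) read after 30 min at 22 °C. The reaction was started with Boc-Glu(OBzl)-Ala-Arg-AMC (10 μM stock) after a 15 min preincubation of the enzyme (0.45 nM stock) with compound (final 50 μM to 0.00013 μM).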

human and animal plasma = assay: Determination of anticoagulatory activity: activated partial thromboplastin time (aPTT) in plasma; details: concentration of test substance which brings about a 1.5-fold extension of the aPTT; plasma species not given
Summary of the method: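 Citrated plasma (1:9, 0.11 M citrate; 4000 g, 15 min) from human or animal blood incubated with test compound and cephalin/kaolin PTT reagent for 3 min at 37° C.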

T1 sequence (P03951 388-625 limits assumed): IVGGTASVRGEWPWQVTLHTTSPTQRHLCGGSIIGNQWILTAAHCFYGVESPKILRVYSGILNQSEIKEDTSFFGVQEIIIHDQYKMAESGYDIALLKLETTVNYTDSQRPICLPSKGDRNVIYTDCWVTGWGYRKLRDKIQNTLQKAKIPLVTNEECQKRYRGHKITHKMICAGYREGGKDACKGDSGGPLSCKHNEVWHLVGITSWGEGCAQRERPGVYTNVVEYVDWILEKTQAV
T1 sequence (P03951 19-387 partner limits assumed): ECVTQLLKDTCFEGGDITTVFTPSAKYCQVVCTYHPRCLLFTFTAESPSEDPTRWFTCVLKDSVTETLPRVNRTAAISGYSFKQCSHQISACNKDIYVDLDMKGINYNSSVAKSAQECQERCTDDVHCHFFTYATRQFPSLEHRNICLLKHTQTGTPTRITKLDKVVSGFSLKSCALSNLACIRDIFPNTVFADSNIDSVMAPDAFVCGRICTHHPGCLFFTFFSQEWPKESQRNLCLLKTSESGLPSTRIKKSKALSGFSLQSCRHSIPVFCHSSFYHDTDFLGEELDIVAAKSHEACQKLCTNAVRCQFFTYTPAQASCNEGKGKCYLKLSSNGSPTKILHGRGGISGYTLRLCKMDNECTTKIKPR

Row | SMILES | IC50 (human factor XIa) [nM] | aPTT (human and animal plasma) [µmol/L]
1 | NC[C@H]1CC[C@H](C(=O)N[C@@H](Cc2ccc(-c3ccc(C(=O)N[C@@H]4CCNC4)cc3)cc2)C(=O)Nc2ccc(-c3nn[nH]n3)cc2)CC1 [Example 39, 4′-[(2S)-2-({[trans-4-(Aminomethyl)cyclohexyl]carbonyl}amino)-3-oxo-3-{[4-(2H-tetrazol-5-yl)phenyl]amino}propyl]-N-[(3R)-pyrrolidin-3-yl]biphenyl-4-carboxamide hydrochloride] | 9.8 | 0.1
2 | Cc1cc(C(=O)NC2CCN(C(C)C)CC2)ccc1-c1ccc(C[C@H](NC(=O)[C@H]2CC[C@H](CN)CC2)C(=O)Nc2ccc(-c3nn[nH]n3)cc2)cc1 [Example 40, 4′-[(2S)-2-({[trans-4-(Aminomethyl)cyclohexyl]carbonyl}amino)-3-oxo-3-{[4-(2H-tetrazol-5-yl)phenyl]amino}propyl]-N-(1-isopropylpiperidin-4-yl)-2-methylbiphenyl-4-carboxamide hydrochloride] | 3.6 | 0.11
3 | Cc1cc(C(=O)NCC[N+](C)(C)C)ccc1-c1ccc(C[C@H](NC(=O)[C@H]2CC[C@H](CN)CC2)C(=O)Nc2ccc(-c3nn[nH]n3)cc2)cc1 [Example 41, 2-[({4′-[(2S)-2-({[trans-4-(Aminomethyl)cyclohexyl]carbonyl}amino)-3-oxo-3-({[4-(2H-tetrazol-5-yl)phenyl]amino}propyl]-2-methylbiphenyl-4-yl}carbonyl)amino]-N,N,N-trimethylethanaminium hydrochloride] | 6 | 0.18
4 | Cc1cc(C(=O)NC2CCN(C)CC2)ccc1-c1ccc(C[C@H](NC(=O)[C@H]2CC[C@H](CN)CC2)C(=O)Nc2ccc(-c3nn[nH]n3)cc2)cc1 [Example 42, 4′-[(2S)-2-({[trans-4-(Aminomethyl)cyclohexyl]carbonyl}amino)-3-oxo-3-{[4-(2H-tetrazol-5-yl)phenyl]amino}propyl]-2-methyl-N-(1-methylpiperidin-4-yl)biphenyl-4-carboxamide hydrochloride] | 3.6 | 0.1
5 | Cc1cc(C(=O)NC2C3CNCC32)ccc1-c1ccc(C[C@H](NC(=O)C2CCC(CN)CC2)C(=O)Nc2ccc(-c3nn[nH]n3)cc2)cc1 (stereo partly drawn) [Example 43, 4′-[(2S)-2-({[trans-4-(Aminomethyl)cyclohexyl]carbonyl}amino)-3-oxo-3-{[4-(2H-tetrazol-5-yl)phenyl]amino}propyl]-N-(3-azabicyclo[3.1.0]hex-6-yl)-2-methylbiphenyl-4-carboxamide hydrochloride] | 3.3 | 0.06
6 | Cc1cc(C(=O)NC2CC3CCC(C2)N3C)ccc1-c1ccc(C[C@H](NC(=O)C2CCC(CN)CC2)C(=O)Nc2ccc(-c3nn[nH]n3)cc2)cc1 (stereo partly drawn) [Example 44, 4′-[(2S)-2-({[trans-4-(Aminomethyl)cyclohexyl]carbonyl}amino)-3-oxo-3-{[4-(2H-tetrazol-5-yl)phenyl]amino}propyl]-2-methyl-N-(8-methyl-8-azabicyclo[3.2.1]oct-3-yl)biphenyl-4-carboxamide hydrochloride] | 5.7 | 0.11
7 | NC[C@H]1CC[C@H](C(=O)N[C@@H](Cc2ccc(-c3ccc(C(=O)NC4CCNCC4)c(F)c3)cc2)C(=O)Nc2ccc(-c3nn[nH]n3)cc2)CC1 [Example 45, 4′-[(2S)-2-({[trans-4-(Aminomethyl)cyclohexyl]carbonyl}amino)-3-oxo-3-{[4-(2H-tetrazol-5-yl)phenyl]amino}propyl]-3-fluoro-N-(piperidin-4-yl)biphenyl-4-carboxamide hydrochloride] | 6.2 | 0.14
8 | Cc1cc(C(=O)NC2CCN(CC(F)(F)F)CC2)ccc1-c1ccc(C[C@H](NC(=O)[C@H]2CC[C@H](CN)CC2)C(=O)Nc2ccc(-c3nn[nH]n3)cc2)cc1 [Example 46, 4′-[(2S)-2-({[trans-4-(Aminomethyl)cyclohexyl]carbonyl}amino)-3-oxo-3-{[4-(2H-tetrazol-5-yl)phenyl]amino}propyl]-2-methyl-N-[1-(2,2,2-trifluoroethyl)piperidin-4-yl]biphenyl-4-carboxamide hydrochloride] | 3.6 | 0.22
9 | NC[C@H]1CC[C@H](C(=O)N[C@@H](Cc2ccc(-c3ccc(C(=O)N4CCNCC4)cc3)cc2)C(=O)Nc2ccc(-c3nn[nH]n3)cc2)CC1 [Example 47, trans-4-(Aminomethyl)-N-[(2S)-1-oxo-3-[4′-(piperazin-1-ylcarbonyl)biphenyl-4-yl]-1-{[4-(2H-tetrazol-5-yl)phenyl]amino}propan-2-yl]cyclohexanecarboxamide trifluoroacetate] | 16 | 0.51
10 | Cc1cc(C(=O)NC2CCNCC2)ccc1-c1ccc(C[C@H](NC(=O)[C@H]2CC[C@H](CN)CC2)C(=O)Nc2ccc(-c3nc(C(F)(F)F)n[nH]3)cc2)cc1 [Example 48, 4′-[(2S)-2-({[trans-4-(Aminomethyl)cyclohexyl]carbonyl}amino)-3-oxo-3-({4-[3-(trifluoromethyl)-1H-1,2,4-triazol-5-yl]phenyl}amino)propyl]-2-methyl-N-(piperidin-4-yl)biphenyl-4-carboxamide hydrochloride] | 2.7 | 0.1
11 | Cc1cc(C(=O)NC2CCNCC2)ccc1-c1ccc(C[C@H](NC(=O)[C@H]2CC[C@H](CN)CC2)C(=O)Nc2ccc(-c3nnc(Cl)[nH]3)cc2)cc1 [Example 49, 4′-[(2S)-2-({[trans-4-(Aminomethyl)cyclohexyl]carbonyl}amino)-3-{[4-(3-chloro-4H-1,2,4-triazol-5-yl)phenyl]amino}-3-oxopropyl]-2-methyl-N-(piperidin-4-yl)biphenyl-4-carboxamide hydrochloride] | 2.1 | 0.08
12 | Cc1nc2ccc(NC(=O)[C@H](Cc3ccc(-c4ccc(C(=O)NC5CCNCC5)cc4C)cc3)NC(=O)[C@H]3CC[C@H](CN)CC3)cc2[nH]1 [Example 50, 4′-{(2S)-2-({[trans-4-(Aminomethyl)cyclohexyl]carbonyl}amino)-3-[(2-methyl-1H-benzimidazol-6-yl)amino]-3-oxopropyl}-2-methyl-N-(piperidin-4-yl)biphenyl-4-carboxamide hydrochloride] | 8.3 | 0.16
13 | Cc1cc(C(=O)NC2CCNCC2)ccc1-c1ccc(C[C@H](NC(=O)[C@H]2CC[C@H](CN)CC2)C(=O)Nc2ccc3[nH]c(-c4ccccn4)nc3c2)cc1 [Example 51, 4′-[(2S)-2-({[trans-4-(Aminomethyl)cyclohexyl]carbonyl}amino)-3-oxo-3-{[2-(pyridin-2-yl)-1H-benzimidazol-5-yl]amino}propyl]-2-methyl-N-(piperidin-4-yl)biphenyl-4-carboxamide hydrochloride] | 11 | 0.44
14 | Cc1cc(C(=O)NC2CCNCC2)ccc1-c1ccc(C[C@H](NC(=O)[C@H]2CC[C@H](CN)CC2)C(=O)Nc2ccc3nc(C(F)(F)F)[nH]c3c2)cc1 [Example 52, 4′-[(2S)-2-({[trans-4-(Aminomethyl)cyclohexyl]carbonyl}amino)-3-oxo-3-{[2-(trifluoromethyl)-1H-benzimidazol-6-yl]amino}propyl]-2-methyl-N-(piperidin-4-yl)biphenyl-4-carboxamide hydrochloride] | 14 | 0.2
15 | Cc1cc(C(=O)NC2CCNCC2)ccc1-c1ccc(C[C@H](NC(=O)[C@H]2CC[C@H](CN)CC2)C(=O)Nc2ccc3[nH]c(=O)[nH]c3c2)cc1 [Example 53, 4′-{(2S)-2-({[trans-4-(Aminomethyl)cyclohexyl]carbonyl}amino)-3-oxo-3-[(2-oxo-2,3-dihydro-1H-benzimidazol-5-yl)amino]propyl}-2-methyl-N-(piperidin-4-yl)biphenyl-4-carboxamide hydrochloride] | 16 | 0.16
16 | COCc1nnc(-c2ccc(NC(=O)[C@H](Cc3ccc(-c4ccc(C(=O)NC5CCNCC5)cc4C)cc3)NC(=O)[C@H]3CC[C@H](CN)CC3)cc2)[nH]1 [Example 54, 4′-[(2S)-2-({[trans-4-(Aminomethyl)cyclohexyl]carbonyl}amino)-3-({4-[3-(methoxymethyl)-4H-1,2,4-triazol-5-yl]phenyl}amino)-3-oxopropyl]-2-methyl-N-(piperidin-4-yl)biphenyl-4-carboxamide hydrochloride] | 16 | 0.24
17 | Cc1cc(C(=O)NC2CCNCC2)ccc1-c1ccc(C[C@H](NC(=O)[C@H]2CC[C@H](CN)CC2)C(=O)Nc2ccc3[nH]c(=O)oc3c2)cc1 [Example 55, 4′-{(2S)-2-({[trans-4-(Aminomethyl)cyclohexyl]carbonyl}amino)-3-oxo-3-[(2-oxo-2,3-dihydro-1,3-benzoxazol-6-yl)amino]propyl}-2-methyl-N-(piperidin-4-yl)biphenyl-4-carboxamide hydrochloride] | 41 | 0.37
18 | Cc1nnc(-c2ccc(NC(=O)[C@H](Cc3ccc(-c4ccc(C(=O)NC5CCNCC5)cc4C)cc3)NC(=O)[C@H]3CC[C@H](CN)CC3)cc2)[nH]1 [Example 56, 4′-[(2S)-2-({[trans-4-(Aminomethyl)cyclohexyl]carbonyl}amino)-3-{[4-(3-methyl-4H-1,2,4-triazol-5-yl)phenyl]amino}-3-oxopropyl]-2-methyl-N-(piperidin-4-yl)biphenyl-4-carboxamide hydrochloride] | 48 | 0.44
19 | Cc1cc(C(=O)NC2CCNCC2)ccc1-c1ccc(C[C@H](NC(=O)[C@H]2CC[C@H](CN)CC2)C(=O)Nc2ccc3[nH]c(C(F)(F)C(F)(F)F)nc3c2)cc1 [Example 57, 4′-[(2S)-2-({[trans-4-(Aminomethyl)cyclohexyl]carbonyl}amino)-3-oxo-3-{[2-(pentafluoroethyl)-1H-benzimidazol-5-yl]amino}propyl]-2-methyl-N-(piperidin-4-yl)biphenyl-4-carboxamide hydrochloride] | 8.4 | 0.44
